According to US20110077294A1, “R-(-) / S-(+)-7-[3-N SUBSTITUTED AMINO-2 HYDROXYPROPOXY] FLAVONES” (priority 2006, published 2011):
Marks after values point to notes of the source that are not given here.

Legend:
C57BL/KsBom-db/db mice [1] = assay: Blood glucose profile of db/db mice during daily treatment (antihyperglycemic activity); assay type: in vivo; settings: for Blood glucose % change compared to control, day 1: day 1, vs sham; for Blood glucose % change compared to control, day 2: day 2, vs sham; for Blood glucose % change compared to control, day 3: day 3, vs sham; for Blood glucose % change compared to control, day 4: day 4, vs sham; for Blood glucose % change compared to control, day 5: day 5, vs sham; for Blood glucose % change compared to control, day 6: day 6, vs sham; for Blood glucose % change compared to control, day 7: day 7, vs sham; for Blood glucose % change compared to control, day 8: day 8, vs sham; for Blood glucose % change compared to control, day 9: day 9, vs sham; for Comparative antihyperglycemic activity: Average Fall: day given in brackets, in %
Method: (§1) C57BL/KsBom-db/db mice (12-18 weeks old), weighing around 35+g bred in the animal house of CDRI, Lucknow, were used in the present experiments. The mice were housed in groups of 3 to 5 (same sex) in a room controlled for temperature (23±2.0 ° C.) and 12/12 hours light/dark cycle (lights on at 6.00 am). Body weight of each animal was measured daily from day 1 to day 10 of the experiment. All animals had free access to fresh water and normal pellet diet except on the day of the postprandial protocol (day 6) and during the overnight fast before the OGTT on day 10. The animals always had access to water during experimental periods. Blood glucose was checked every morning up till day 10. On day 10 an oral glucose tolerance test (OGTT) was performed after an overnight fasting. Blood glucose was measured at −30.0 min and test compounds were administered. The blood glucose was again measured at 0 min just post treatment and at this juncture glucose solution was given at a dose of 3 gm/kg to all the groups including the vehicle treated group. The blood glucose levels were checked at 30 min, 60 min, 90 min and 120 min post glucose administration. The data was analyzed for its significance on Prism software.

C57BL/KsBom-db/db mice [2] = assay: Oral glucose tolerance test (OGTT) on day 10 in db/db mice; assay type: in vivo; settings: 10 mg/kg
Method: as §1

CC(C)(C)NC[C@H](O)COc1ccc2c(=O)cc(-c3cc(OCc4ccccc4)cc(OCc4ccccc4)c3)oc2c1 [S-002-853 (S), (S)-(+)-7-(3-tert-Butylamino-2-hydroxypropoxy)-3′,5′-dibenzyloxyflavone]
fall in blood glucose profile (in words) (C57BL/KsBom-db/db mice [1]; 10 mg/kg): not statistically significant on any day post treatment | Blood glucose, day 1 post treatment (C57BL/KsBom-db/db mice [1]; 10 mg/kg): 19.8 ± 2.47 mM | Blood glucose % change compared to control, day 1 (C57BL/KsBom-db/db mice [1]; 10 mg/kg): −0.9% | Blood glucose, day 2 post treatment (C57BL/KsBom-db/db mice [1]; 10 mg/kg): 18.5 ± 2.34 mM | Blood glucose % change compared to control, day 2 (C57BL/KsBom-db/db mice [1]; 10 mg/kg): −9.60% | Blood glucose, day 3 post treatment (C57BL/KsBom-db/db mice [1]; 10 mg/kg): 17.9 ± 2.14 mM | Blood glucose % change compared to control, day 3 (C57BL/KsBom-db/db mice [1]; 10 mg/kg): −18.6% | Blood glucose, day 4 post treatment (C57BL/KsBom-db/db mice [1]; 10 mg/kg): 15.3 ± 2.96 mM | Blood glucose % change compared to control, day 4 (C57BL/KsBom-db/db mice [1]; 10 mg/kg): −26.8% | Blood glucose, day 5 post treatment (C57BL/KsBom-db/db mice [1]; 10 mg/kg): 13.8 ± 2.98 mM | Blood glucose % change compared to control, day 5 (C57BL/KsBom-db/db mice [1]; 10 mg/kg): −35.0% | Blood glucose, day 6 post treatment (C57BL/KsBom-db/db mice [1]; 10 mg/kg): 13.1 ± 3.41 mM | Blood glucose % change compared to control, day 6 (C57BL/KsBom-db/db mice [1]; 10 mg/kg): −40.7% | Blood glucose, day 7 post treatment (C57BL/KsBom-db/db mice [1]; 10 mg/kg): 11.8 ± 3.55 mM | Blood glucose % change compared to control, day 7 (C57BL/KsBom-db/db mice [1]; 10 mg/kg): −42.0% | Blood glucose, day 8 post treatment (C57BL/KsBom-db/db mice [1]; 10 mg/kg): 12.1 ± 3.39 mM | Blood glucose % change compared to control, day 8 (C57BL/KsBom-db/db mice [1]; 10 mg/kg): −42.2% | Blood glucose, day 9 post treatment (C57BL/KsBom-db/db mice [1]; 10 mg/kg): 14.2 ± 2.98 mM | Blood glucose % change compared to control, day 9 (C57BL/KsBom-db/db mice [1]; 10 mg/kg): −39.4% | antihyperglycemic and antidyslipidemic/antihyperlipidemic activity (in words) (C57BL/KsBom-db/db mice [1]; 25 mg/kg): significant antihyperglycemic and antidyslipidemic activity | Blood glucose, day 1 post treatment (C57BL/KsBom-db/db mice [1]; 25 mg/kg): 22.4 ± 1.24 mM | Blood glucose % change compared to control, day 1 (C57BL/KsBom-db/db mice [1]; 25 mg/kg): +0.20% | Blood glucose, day 2 post treatment (C57BL/KsBom-db/db mice [1]; 25 mg/kg): 16.6 ± 3.85 mM | Blood glucose % change compared to control, day 2 (C57BL/KsBom-db/db mice [1]; 25 mg/kg): −33.6% | Blood glucose, day 3 post treatment (C57BL/KsBom-db/db mice [1]; 25 mg/kg): 12.9 ± 3.00 mM | Blood glucose % change compared to control, day 3 (C57BL/KsBom-db/db mice [1]; 25 mg/kg): −39.5% | Blood glucose, day 4 post treatment (C57BL/KsBom-db/db mice [1]; 25 mg/kg): 10.6 ± 2.89 mM | Blood glucose % change compared to control, day 4 (C57BL/KsBom-db/db mice [1]; 25 mg/kg): −54.9% | Blood glucose, day 5 post treatment (C57BL/KsBom-db/db mice [1]; 25 mg/kg): 8.80 ± 3.84 mM | Blood glucose % change compared to control, day 5 (C57BL/KsBom-db/db mice [1]; 25 mg/kg): −55.6% | Blood glucose, day 6 post treatment (C57BL/KsBom-db/db mice [1]; 25 mg/kg): 7.60 ± 3.46 mM | Blood glucose % change compared to control, day 6 (C57BL/KsBom-db/db mice [1]; 25 mg/kg): −61.1% | maximum percentage fall in blood glucose (C57BL/KsBom-db/db mice [1]; 25 mg/kg, day 6 of treatment): around 61.1% | Blood glucose, day 7 post treatment (C57BL/KsBom-db/db mice [1]; 25 mg/kg): 10.6 ± 2.20 mM | Blood glucose % change compared to control, day 7 (C57BL/KsBom-db/db mice [1]; 25 mg/kg): −52.2% | Blood glucose, day 8 post treatment (C57BL/KsBom-db/db mice [1]; 25 mg/kg): 8.30 ± 1.13 mM | Blood glucose % change compared to control, day 8 (C57BL/KsBom-db/db mice [1]; 25 mg/kg): −60.0% | Blood glucose, day 9 post treatment (C57BL/KsBom-db/db mice [1]; 25 mg/kg): 7.90 ± 1.30 mM | Blood glucose % change compared to control, day 9 (C57BL/KsBom-db/db mice [1]; 25 mg/kg): −58.5% | antihyperglycemic and antidyslipidemic/antihyperlipidemic activity (in words) (C57BL/KsBom-db/db mice [1]; 25 mg/kg, listed as S-isomer): marked antihyperglycemic and antihyperlipidemic effect compared to racemic mixture | Comparative antihyperglycemic activity: Average Fall (C57BL/KsBom-db/db mice [1]; test dose 10 mg/kg): 42.2* | Comparative antihyperglycemic activity: Average Fall (C57BL/KsBom-db/db mice [1]; test dose 25 mg/kg): 61.1** | Blood glucose profile, 0 min post glucose load (C57BL/KsBom-db/db mice [2]; OGTT day 10, 0 min): 9.23 ± 3.10 mM | Blood glucose % change compared to control, 0 min post glucose load (C57BL/KsBom-db/db mice [2]; OGTT day 10, 0 min, vs sham): −25.7% | Blood glucose profile, 30 min post glucose load (C57BL/KsBom-db/db mice [2]; OGTT day 10, 30 min): 19.3 ± 5.52 mM | Blood glucose % change compared to control, 30 min post glucose load (C57BL/KsBom-db/db mice [2]; OGTT day 10, 30 min, vs sham): −32.8% | Blood glucose profile, 60 min post glucose load (C57BL/KsBom-db/db mice [2]; OGTT day 10, 60 min): 18.4 ± 5.39 mM | Blood glucose % change compared to control, 60 min post glucose load (C57BL/KsBom-db/db mice [2]; OGTT day 10, 60 min, vs sham): −27.2%
